Patent US20230233520A1, “COMBINATION THERAPY OF ARTEMISININ-RELATED COMPOUNDS AND HISTONE DEACETYLASE INHIBITORS FOR TREATMENT OF HPV-RELATED BENIGN, PREMALIGNANT, AND MALIGNANT DISEASES” (Georgetown University, priority 2020, published 2023)
Read-outs that look alike come from different tables or passages of the source.

Legend:
HPV precancers = conditions: self-administered by patients; published clinical trial [8]; cited from earlier work
HeLa cells [1] = experiment: […]-GLO cell viability, single drugs (Example 1); assay type: cell-based; conditions: 72 h
Description: (§1) To test the individual effects of artesunate and panobinostat, three cervical cancer cell model lines (Caski, SiHa, and HeLa cells) were obtained from the American Type Culture Collection (Manassas, Va.) and maintained in DMEM (Invitrogen) supplemented with 10% fetal bovine serum (Quality Biological, Inc., Gaitherburg, Md.) and penicillin/streptomycin (Invitrogen), in accordance with previous experiments. The cells were split every 3 to 5 days to prevent any of the lines from becoming fully confluent.
(§2) To prepare the cells for treatment, 6000 cells per well were seeded in 96-well plates (for each cell line). Cells were then incubated for a 24-hour period to allow them to adhere to the wells. The cells were then treated with various concentrations of artesunate or panobinostat. For artesunate, the concentrations used for treating each cell type were 80 μM, 40 μM, 20 μM, 10 μM, 5 μM, 2.5 μM, and 1.25 μM. […] Control wells consisted of DMEM, in which the DMSO concentration was the highest drug concentration (0.2% for artesunate, 0.064% for panobinostat) tested. Each concentration was performed in triplicate and the control was conducted in sextuplicate.
(§3) After an incubation time of 72 hours, the […]-GLO® Luminescent Cell Viability Assay (Promega) was conducted. The buffer/enzyme solution was mixed and applied to the cells according to the Promega protocol. Cells were then placed on the orbital shaker for 3 minutes, incubated for 30 minutes, and placed in the luminometer for reading.
(§4) To analyze the data, the background (from only the DMEM media) was subtracted from the luminescence of each well. The program GraphPad Prism 7 was then used to calculate the IC50 values and the cell viability curves for each drug and cell line. All readings were normalized based upon the control values.

Caski cells = experiment: […]-GLO cell viability, single drugs (Example 1); assay type: cell-based; conditions: Homo sapiens, Ca-Ski, 72 h, read-out: IC50 Confidence Interval
Description: as §1, §2, §3, §4

SiHa cells [2] = experiment: […]-GLO cell viability, single drugs (Example 1); assay type: cell-based; conditions: Homo sapiens, 72 h, read-out: IC50 Confidence Interval
Description: as §1, §2, §3, §4

[3] = tested on: HPV 16- and HPV 18-positive cells; conditions: in vitro experiments [7]; cited from earlier work
HeLa cells [4] = experiment: […]-GLO cell viability, artesunate/panobinostat dose pairings, CompuSyn analysis (Example 1); assay type: cell-based; parameters: key: fraction surviving, normalized to average of untreated controls
Experimental: To test the combined effects of artesunate and panobinostat, HeLa cells were cultured as previously described. The cells were then seeded in 96-well plates as discussed above. After the 24-hour incubation period, the cells were treated by the following means. […] All possible pairings of each drug concentration were tested. […] All pairings were performed in triplicate and the control was performed in sextuplicate.
After 72 hours of incubation time, the […]-GLO® Luminescent Cell Viability Assay (Promega) was conducted as above. The combination effect of the drugs was analyzed using the CompuSyn program. The background (DMEM only) was subtracted as described previously and all experimental wells were normalized to the average of the controls (as above).

[5] = toxicity to humans; cited from earlier work
HEC/16E6E7 cells = experiment: […]-GLO cell viability, drugs alone and in combination (Example 4); assay type: cell-based
Experimental: The cell lines were treated with artesunate, vorinostat, and panobinostat individually and in combination. The IC50 values were calculated from the cell viability assays for each drug alone and in combination. […] Cells were then incubated for a 24-hour period to allow them to adhere to the wells. […] For the experiments involving artesunate and panobinostat, the concentrations used varied by cell type. […] After an incubation time of 72 hours, the […]-GLO® Luminescent Cell Viability Assay (Promega) was conducted. The buffer/enzyme solution was mixed and applied to the cells according to the Promega protocol. Cells were then placed on the orbital shaker for 2 minutes and then placed in the luminometer for reading. To analyze the data, the background (from only the DMEM media) was subtracted from the luminescence of each well. […] All readings were normalized based upon the control values. […] Analyses were conducted using GraphPad Prism 9. The combination index and dose-reduction index values were calculated based using the summary of the data for all three cell types. […] Dose reduction values are the measure of how many folds the dose of each drug in a synergistic combination may be reduced compared with the doses of each drug alone. By reducing dose, toxicity is reduced without compromising effect. The values are shown in Table 4 for IC50 and in Table 5 for IC90. […] The methods of analysis are the same as those described above. […] A DMSO experimental stock was made in DMEM as a negative control. […] Analyses were conducted using GraphPad Prism 9. The combination index and dose-reduction index values were calculated based using the summary of the data for all three cell types. […] Dose reduction values are the measure of how many folds the dose of each drug in a synergistic combination may be reduced compared with the doses of each drug alone. By reducing dose, toxicity is reduced without compromising effect. The values are shown in Table 6 for IC50 and in Table 7 for IC90.

HeLa cells [6] = experiment: as above; assay type: cell-based; conditions: Homo sapiens
Experimental: (§5) The IC50 values were calculated from the cell viability assays for each drug alone and in combination. […] Cells were then incubated for a 24-hour period to allow them to adhere to the wells. […] For the experiments involving artesunate and panobinostat, the concentrations used varied by cell type. […] The buffer/enzyme solution was mixed and applied to the cells according to the Promega protocol. Cells were then placed on the orbital shaker for 2 minutes and then placed in the luminometer for reading. To analyze the data, the background (from only the DMEM media) was subtracted from the luminescence of each well. […] All readings were normalized based upon the control values. […] Analyses were conducted using GraphPad Prism 9. The combination index and dose-reduction index values were calculated based using the summary of the data for all three cell types. […] Dose reduction values are the measure of how many folds the dose of each drug in a synergistic combination may be reduced compared with the doses of each drug alone. […] The values are shown in Table 4 for IC50 and in Table 5 for IC90. […] The methods of analysis are the same as those described above. […] A DMSO experimental stock was made in DMEM as a negative control. […] Analyses were conducted using GraphPad Prism 9. The combination index and dose-reduction index values were calculated based using the summary of the data for all three cell types. […] Dose reduction values are the measure of how many folds the dose of each drug in a synergistic combination may be reduced compared with the doses of each drug alone. […] The values are shown in Table 6 for IC50 and in Table 7 for IC90.

SiHa cells [7] = experiment: as above; assay type: cell-based; conditions: Homo sapiens
Experimental: as §5

C[C@H]1[C@H](OC(=O)CCC(=O)O)O[C@@H]2O[C@@]3(C)CC[C@H]4[C@H](C)CC[C@@H]1[C@@]24OO3 [artesunate]
cure of HPV precancers (HPV precancers): 70% | IC50 (HeLa cells [1]; Homo sapiens, drug alone): ~5 µM | IC50 (HeLa cells [1]; Homo sapiens, read-out: IC50 Confidence Interval, HeLa, 95% confidence interval): 4.33 to 6.07 µM | IC50 (HeLa cells [1]; drug alone): 5.13 µM | IC50 (Caski cells): 1.74 to 3.14 µM | IC50 (SiHa cells [2]): 6.8 to 9.43 µM | killing of HPV-positive cells [3]: selectively kill | Effect (fraction of HeLa cells still surviving) (HeLa cells [4]; artesunate 1.25 uM alone): 0.7457 | Effect (fraction of HeLa cells still surviving) (HeLa cells [4]; artesunate 2.5 uM alone): 0.6418 | Effect (fraction of HeLa cells still surviving) (HeLa cells [4]; artesunate 5.0 uM alone): 0.5808 | Effect (fraction of HeLa cells still surviving) (HeLa cells [4]; artesunate 10.0 uM alone): 0.4287 | Effect (fraction of HeLa cells still surviving) (HeLa cells [4]; artesunate 20.0 uM alone): 0.3015 | safety relative to artemether [5]: twice as safe as artemether | toxicity relative to chloroquinine [5]: one-fiftieth as toxic as chloroquinine | IC50 (HEC/16E6E7 cells; 72 h, read-out: IC50 ART): 4.93 µM | IC90 (HEC/16E6E7 cells; 72 h, read-out: IC90 ART): 77.6 µM | IC50 (HEC/16E6E7 cells; read-out: IC50 ART): 6.99 µM | IC90 (HEC/16E6E7 cells; read-out: IC90 ART): 158 µM | IC50 (HeLa cells [6]; HeLa, 72 h, read-out: IC50 ART): 3.7 µM | IC90 (HeLa cells [6]; HeLa, 72 h, read-out: IC90 ART): 14.3 µM | IC50 (HeLa cells [6]; HeLa, read-out: IC50 ART): 4.55 µM | IC90 (HeLa cells [6]; HeLa, read-out: IC90 ART): 15.5 µM | IC50 (SiHa cells [7]; SiHa, 72 h, read-out: IC50 ART): 4.83 µM | IC90 (SiHa cells [7]; SiHa, 72 h, read-out: IC90 ART): 30 µM | IC50 (SiHa cells [7]; SiHa, read-out: IC50 ART): 6.06 µM | IC90 (SiHa cells [7]; SiHa, read-out: IC90 ART): 34.5 µM

Cc1[nH]c2ccccc2c1CCNCc1ccc(/C=C/C(=O)NO)cc1 [panobinostat]
IC50 (HeLa cells [1]; Homo sapiens, 95% confidence interval, read-out: IC50 Confidence Interval): 0.00771 to 0.0132 µM | IC50 (HeLa cells [1]; Homo sapiens, drug alone, read-out: IC50): ~0.01 µM | IC50 (HeLa cells [1]; drug alone, read-out: IC50): 0.0101 µM | IC50 (Caski cells; Caski, 95% confidence interval): 0.00655 to 0.0125 µM | IC50 (SiHa cells [2]; 95% confidence interval): 0.0199 to 0.0257 µM | Effect (fraction of HeLa cells still surviving) (HeLa cells [4]; panobinostat 2.5 nM alone): 0.7864 | Effect (fraction of HeLa cells still surviving) (HeLa cells [4]; panobinostat 5.0 nM alone): 0.7379 | Effect (fraction of HeLa cells still surviving) (HeLa cells [4]; panobinostat 10.0 nM alone): 0.6177 | Effect (fraction of HeLa cells still surviving) (HeLa cells [4]; panobinostat 20.0 nM alone): 0.4359 | Effect (fraction of HeLa cells still surviving) (HeLa cells [4]; panobinostat 40.0 nM alone): 0.3322 | IC50 (HEC/16E6E7 cells; HEC/16E6E7, PAN alone, 72 h, read-out: IC50 PAN): 25 µM | IC90 (HEC/16E6E7 cells; HEC/16E6E7, PAN alone, 72 h, read-out: IC90 PAN): 115 µM | IC50 (HeLa cells [6]; Hela, PAN alone, 72 h, read-out: IC50 PAN): 14.7 µM | IC90 (HeLa cells [6]; Hela, PAN alone, 72 h, read-out: IC90 PAN): 60.5 µM | IC50 (SiHa cells [7]; Siha, PAN alone, 72 h, read-out: IC50 PAN): 17.8 µM | IC90 (SiHa cells [7]; Siha, PAN alone, 72 h, read-out: IC90 PAN): 67.6 µM

O=C(CCCCCCC(=O)Nc1ccccc1)NO [vorinostat]
IC50 (HEC/16E6E7 cells; HEC/16E6E7, SAHA alone, read-out: IC50 SAHA): 2.31 µM | IC90 (HEC/16E6E7 cells; HEC/16E6E7, SAHA alone, read-out: IC90 SAHA): 8.54 µM | IC90 (HeLa cells [6]; Hela, SAHA alone, read-out: IC90 SAHA): 6.5 µM | IC90 (SiHa cells [7]; Siha, SAHA alone, read-out: IC90 SAHA): 13.2 µM
